These are literature values, as cited in patent US20090209656A1, “DISINFECTION/SANITATION METHOD WHERE THE MATERIAL IS TREATED WITH A SOLUTION COMPRISING BENZYL ALCOHOL AND C2-3 ALCOHOL” (GE HEALTHCARE BIO-SCIENCES AB, priority 2006, published 2009).

For orientation: NOAEL means the highest dose or exposure tested at which no adverse effect was seen.

The conditions of data set [1]: acute toxicity.
For data set [2] the following is noted: long-term exposure.

Consider `OCc1ccccc1` [benzyl alcohol], for which the LD50 in data set [1] is listed as 1610 mg/kg body weight. The NOAEL in data set [2] is given as above 400 mg/kg body weight/day.
